# From US20240270811A1, “Glycosylated Neuropeptide Derivative, Pharmaceutical Composition, Intranasal/Nasal Drop Formulation, and Use of Pharmaceutical Composition” (Tokyo University of Science Foundation, priority 2021, published 2024)
# Where no end group is shown, it is not given here. The star is where a group is joined. Cam = NC(=O)C*
# What was measured:
# [1] = Migration to central nervous system, optical imaging of brain sagittal sections (ICG-labelled derivatives); format: in vivo, mouse; conditions: 3.0 nmol/4 μL intranasal
# Experimental: Administration solutions were prepared by completely dissolving a PAS-CPP-GLP-2 derivative (no sugar) labelled with ICG or a PAS-CPP-GLP-2 derivative (11-sugar) labelled with ICG in DMSO, and adjusting the final concentration of DMSO to 16% by adding PBS.
# (§1) The concentration of a PAS-CPP-GLP-2 derivative (no sugar) or a PAS-CPP-GLP-2 derivative (11-sugar) was adjusted to 3.0 nmol/4 μL.
# After anesthetizing mice with isoflurane using an all-in-one small animal anesthetizer, the administration solutions or 16% DMSO as a control was intranasally administered to the mice by the amount of 2 μL per nose cavity, 4 μL in total.
# In order to observe the migration to the brain over time, the brain was isolated 5 minutes, 10 minutes, 20 minutes, 60 minutes and 90 minutes after the intranasal administration, respectively, and subjected to infiltration fixation with 4% paraformaldehyde (4% PFA) solution overnight. Subsequently, a sagittal section with a thickness of 2 mm at the left and the right from the center of the brain was prepared using a brain matrix (RBM-2000S, ASI). The section was placed in a dish and analyzed with an optical imaging apparatus (Clairvivo OPT plus, Shimadzu Corporation) at an excitation wavelength of 785 nm, fluorescence wavelength of 849 nm, and an exposure time: 6 seconds.
# [2] = Solubility of GLP-2/GLP-1 derivatives with respect to aqueous medium (PBS); format: physicochemical
# Experimental: Samples were prepared by dispensing a Milli-Q aqueous solution of PAS-CPP-GLP-2 (no sugar), PAS-CPP-GLP-2 (5-sugar) or PAS-CPP-GLP-2 (11-sugar) to a microtube by an amount of 5 nmol/tube, 30 nmol/tube, 60 nmol/tube, 120 nmol/tube or 200 nmol/tube, and freeze-drying the same. The freeze-dried samples were added with […] of PBS (Dulbecco's Phosphate Buffered Saline; Sigma-Aldrich, herein after the same), subjected to ultrasonic treatment, and allowed to stand overnight. Thereafter, the concentration of the peptide was measured. Specifically, a supernatant obtained by centrifuging the sample suspension was subjected to the measurement of OD (280 nm) with a spectrometer (NanoDrop™ 2000c spectrometer; Thermo Fisher Scientific K.K.)
# Administration solutions were prepared by mixing a PAS-CPP-GLP-2 derivative (no sugar) or a PAS-CPP-GLP-2 derivative (11-sugar) with PBS. […] The concentration of each GLP-2 derivative was adjusted to 0.6 nmol/4 μL.
# as §1
# [3] = Amount of migration to brain quantified by GLP-2 ELISA; format: in vivo; conditions: 6.0 nmol/mouse intranasal, brain isolated 20 minutes after administration
# Experimental: Mice were intranasally administered with 16% DMSO or GLP-2 derivatives (6.0 nmol/mouse). The brain was isolated 20 minutes after the administration, and homogenized with BioMasher II (Nippi, Tokyo, Japan). A sample was prepared by performing centrifugal separation by 1000×g for 15 minutes and collecting a supernatant. The amount of a GLP-2 derivative in the sample was quantified using a GLP-2 ELISA kit. Specifically, a cleaning process including filling each well of a measurement plate with a cleaning fluid (350 μL) and suctioning the cleaning fluid with a pipette was performed three times. Subsequently, a labeled antigen solution (40 μL), a sample (25 μL) and a specific antibody solution (50 μL) were added in this order to the well and mixed. The measurement plate was tightly sealed and allowed to stand for 18 hours at 4° C. The cleaning process was performed three times, and a SA-HRP solution (100 μL) was added and allowed to permeate for 1.5 hours at room temperature (60 rpm). […] Finally, an enzyme reaction stop solution (100 μL) was added and an absorbance at 490 nm was measured with ARVO (PerkinElmer Japan Co., Ltd., Kanagawa, Japan) to calculate the concentration of a GLP-2 derivative.
# [4] = system: 7-week-old male ddY mouse; assay: Forced swim test (FST) after intranasal administration; format: in vivo; conditions: 16% DMSO in PBS, 0.6 nmol/mouse intranasal, 20 minutes before test session
# Experimental: Administration solutions were prepared by completely dissolving PAS-CPP-GLP-2 derivative (no sugar) or PAS-CPP-GLP-2 derivatives (11-sugar, 5-sugar) in DMSO and adding PBS such that the final concentration of DMSO was 16% by mass. The concentration of each GLP-2 derivative was adjusted to 0.6 nmol/4 μL.
# After anesthetizing mice with isoflurane using an all-in-one small animal anesthetizer (MK-AT210D, Muromachi Kikai Co., Ltd., hereinafter the same), the solution was intranasally administered to the mice. Specifically, the intranasal administration was performed by contacting a tip of the anesthetizer to a nasal cavity in a horizontal manner such that the solution was inhaled by spontaneous respiration, by the amount of 2 μL per nose cavity, 4 μL in total (0.6 nmol/mouse). […]
# A 7-week-old male ddY mouse is placed in a transparent plastic cylinder with a diameter of 18 cm and a height of 50 cm containing water at a temperature of 25° C.±1° C. to a height of 7 cm, and is allowed to swim for 15 minutes. […] The behavior of the mouse is recorded over the test session with a video camera. […] The time during which the mouse is in a state of immobility (immobility time) is measured in the first 6 minutes from the start of the test session. The existence or non-existence of anti-depressant-like effects is determined by the length of the immobility time. […]
fluorescence in brain section ([1]; 20 minutes after administration),fluorescence in brain section ([1]; 60 minutes after administration),solubility with respect to PBS (FIG. 1) [2],amount of GLP-2 derivative in brain [3],Substance,fluorescence in brain section ([1]; 10 minutes after administration),immobility time / anti-depressant-like effect vs control group [4]
fluorescence was observed,fluorescence was not observed,not dissolved in PBS at all,below the detection limit,"FFLIPKGRRRRRRRRGGHADGSFSDEMNTILDNLAARDFINWLIQTKITDC(Cam)-OH [PAS-CPP-GLP-2 (no sugar), reference compound]",fluorescence was observed at a region around the hippocampus,
,,,,glucagon-like peptide-2 (HADGSFSDEMNTILDNLAARDFINWLIQTKITD; GLP-2),,did not show a significant decrease in immobility time
